Data taken from PubChem BioAssay (NCI).
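These data come from cells grown in 96-well plates and exposed to compound for 48 hours at five concentrations. GI50 marks 50% less growth. Definition used: TGI = concentration required for complete inhibition of growth.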

Legend:
Assay in all cases: NCI-60 cell line screen, 48 h
[1] = tested on: CAKI-1 renal
[2] = tested on: SK-OV-3 ovarian
[3] = tested on: NCI-H460 lung
[4] = tested on: MALME-3M melanoma
[5] = tested on: COLO 205 colon
[6] = tested on: HCT-15 colon
[7] = tested on: HCC-2998 colon
[8] = tested on: SF-539 CNS

For C[C@@H](CO)NC(=O)c1cc(-c2ccc(Cl)cc2)nn(-c2cnn(C)c2)c1=O, the GI50 [1] was 10.4 µM, the TGI [1] was > 100 µM and the GI50 [2] was 82.6 µM. For the same compound, the TGI [2] was > 100 µM, the GI50 [3] was 30 µM and the TGI [3] was > 100 µM. For the same compound, the GI50 [4] was 17.8 µM, the TGI [4] was 45 µM and the GI50 [5] was 24.7 µM. For the same compound, the TGI [5] was 90.6 µM, the GI50 [6] was 17.2 µM and the TGI [6] was > 100 µM. The GI50 [7] was 23.1 µM, the TGI [7] was > 100 µM and the GI50 [8] was 16 µM. For the same compound, the TGI [8] was 48.3 µM.
CC(=O)Nc1n[n+]([O-])c2cc(C)ccc2[n+]1[O-] gave a TGI [1] of 12 µM, a TGI [2] of 20.3 µM and a TGI [3] of 2.14 µM. For the same compound, the TGI [4] was 18.5 µM, the TGI [5] was 8.48 µM and the TGI [6] was 14.9 µM. It also gave a TGI [7] of 71 µM and a TGI [8] of 5.36 µM.
COc1cnc2c(c1)C(=O)c1c-2n(CCCN2CCC(O)CC2)c(=O)c2cc(Cl)ccc12 gave a GI50 [1] of 0.0729 µM, a TGI [1] of 15.1 µM and a GI50 [2] of 0.341 µM. It also gave a TGI [2] of 17.5 µM, a GI50 [3] of 0.0371 µM and a TGI [3] of 1.27 µM. For the same compound, the GI50 [4] was 14.1 µM, the TGI [4] was 27.9 µM and the GI50 [5] was 0.661 µM. It also gave a TGI [5] of 2.64 µM, a GI50 [6] of 1.17 µM and a TGI [6] of 2.55 µM. The GI50 [7] was 1.59 µM, the TGI [7] was 11.1 µM and the GI50 [8] was 0.433 µM. The TGI [8] was 1.64 µM.
With CCSC[C@@H]1C[C@](O)(c2ccc(F)cc2)[C@@H](c2ccc(F)cc2)O1 the GI50 [1] was 18.2 µM, the TGI [1] was 39.7 µM and the GI50 [2] was 18.3 µM. The TGI [2] was 38 µM, the GI50 [3] was 14.8 µM and the TGI [3] was 30.2 µM. For the same compound, the GI50 [4] was 19.9 µM, the TGI [4] was 37.3 µM and the GI50 [5] was 16.5 µM. It also gave a TGI [5] of 31.6 µM, a GI50 [6] of 17.4 µM and a TGI [6] of 33 µM. It also gave a GI50 [7] of 18.8 µM, a TGI [7] of 36.6 µM and a GI50 [8] of 17 µM. It also gave a TGI [8] of 31.1 µM.
CC1(C)O[C@@H]2C[C@H]3[C@@H]4C[C@H](F)C5=CC(=O)C=C[C@]5(C)[C@@]4(F)[C@@H](O)C[C@]3(C)[C@]2(C(=O)CO)O1 was tested, and the TGI [1] was > 100 µM, the TGI [2] was > 100 µM and the TGI [3] was > 100 µM. The TGI [4] was > 100 µM, the TGI [5] was > 100 µM and the TGI [6] was > 100 µM. The TGI [7] was > 100 µM and the TGI [8] was > 100 µM.
With CN(CCCCCl)P(=O)(OCc1ccc([N+](=O)[O-])o1)OCC1OC(n2cnc([N+](=O)[O-])c2N)C(O)C1O (stereo not drawn) the GI50 [1] was > 100 µM, the TGI [1] was > 100 µM and the GI50 [2] was > 100 µM. For the same compound, the TGI [2] was > 100 µM, the GI50 [3] was > 100 µM and the TGI [3] was > 100 µM. The GI50 [4] was > 100 µM, the TGI [4] was > 100 µM and the GI50 [5] was > 100 µM. The TGI [5] was > 100 µM, the GI50 [6] was > 100 µM and the TGI [6] was > 100 µM. The GI50 [7] was > 100 µM, the TGI [7] was > 100 µM and the GI50 [8] was > 100 µM. For the same compound, the TGI [8] was > 100 µM.
NC1(Cc2ccc(Cl)cc2)CCN(c2ncnc3[nH]ccc23)CC1 gave a GI50 [1] of 3.94 µM, a TGI [1] of 19.3 µM and a GI50 [2] of 2.35 µM. The TGI [2] was 15.8 µM, the GI50 [3] was 2.31 µM and the TGI [3] was 13.3 µM. It also gave a GI50 [4] of 6.3 µM, a TGI [4] of 21.6 µM and a GI50 [5] of 3.72 µM. For the same compound, the TGI [5] was 15.1 µM, the GI50 [6] was 5.64 µM and the TGI [6] was 23.9 µM. For the same compound, the GI50 [7] was 3.89 µM, the TGI [7] was 17 µM and the GI50 [8] was 2.21 µM. For the same compound, the TGI [8] was 12.6 µM.
In the case of O=Cc1ccc(-c2ccc(-c3nc4ccccc4s3)cc2)s1, the GI50 [1] is reported as 48.2 µM, the TGI [1] is reported as > 100 µM and the GI50 [2] is reported as > 100 µM. The TGI [2] was > 100 µM, the GI50 [3] was 83.5 µM and the TGI [3] was > 100 µM. For the same compound, the GI50 [4] was 52.4 µM, the TGI [4] was > 100 µM and the GI50 [5] was > 100 µM. For the same compound, the TGI [5] was > 100 µM, the GI50 [6] was 39.8 µM and the TGI [6] was > 100 µM. The GI50 [7] was > 100 µM, the TGI [7] was > 100 µM and the GI50 [8] was 30.7 µM. The TGI [8] was > 100 µM.
With Cc1cc(O)c(C2=NN(c3ccc(S(N)(=O)=O)cc3)C(/C=C/c3ccccc3)C2)cc1Cl (stereo not drawn) the GI50 [1] was 15.3 µM, the TGI [1] was 87.7 µM and the GI50 [2] was 5.52 µM. The TGI [2] was 17.9 µM, the GI50 [3] was 4.03 µM and the TGI [3] was 17 µM. For the same compound, the GI50 [4] was 3.01 µM, the TGI [4] was 17.4 µM and the GI50 [5] was 10.4 µM. For the same compound, the TGI [5] was 22.1 µM, the GI50 [6] was 18.9 µM and the TGI [6] was > 100 µM. The GI50 [7] was 9.89 µM, the TGI [7] was 30.3 µM and the GI50 [8] was 2.98 µM. The TGI [8] was 14 µM.
In the case of O=C(O)c1c(Br)c(Br)c(Br)c(Br)c1C1c2ccc(O)cc2Oc2cc(O)ccc21, the TGI [1] is reported as > 100 µM, the TGI [2] is reported as > 100 µM and the TGI [3] is reported as > 100 µM. For the same compound, the TGI [4] was > 100 µM, the TGI [5] was > 100 µM and the TGI [6] was > 100 µM. For the same compound, the TGI [7] was > 100 µM and the TGI [8] was > 100 µM.
COc1cc(Cl)cc(-c2nn(-c3cccc(NC(=O)Nc4ccc(Cl)c(Cl)c4)c3)cc2-c2ccncc2)c1 gave a GI50 [1] of 2.38 µM, a TGI [1] of 16.7 µM and a GI50 [2] of 3.6 µM. The TGI [2] was 87 µM, the GI50 [3] was 2.27 µM and the TGI [3] was 13.9 µM. The GI50 [4] was 2.06 µM, the TGI [4] was 7.85 µM and the GI50 [5] was 1.71 µM. For the same compound, the TGI [5] was 3.31 µM, the GI50 [6] was 2.51 µM and the TGI [6] was 31.5 µM. It also gave a GI50 [7] of 3.16 µM, a TGI [7] of 36.8 µM and a GI50 [8] of 2.6 µM. The TGI [8] was 13.2 µM.
CN(C)c1cccc(F)c1C(=O)NC(=O)Nc1ccc(Cl)cc1 was tested, and the TGI [1] was 99 µM, the TGI [2] was > 29.3 µM and the TGI [3] was > 100 µM. For the same compound, the TGI [4] was > 100 µM, the TGI [5] was > 100 µM and the TGI [6] was > 31.5 µM. For the same compound, the TGI [7] was 28.3 µM and the TGI [8] was > 100 µM.
For C/C(=N\NC(=S)N1CCCCCC1)c1cccc2cccnc12, the TGI [1] was 2.42 µM, the TGI [2] was > 81.5 µM and the TGI [3] was > 100 µM. The TGI [4] was > 61 µM, the TGI [5] was 12.3 µM and the TGI [6] was > 21.9 µM. For the same compound, the TGI [7] was > 100 µM and the TGI [8] was 5.65 µM.
